Activity calls are given as the source filed them.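 How the source made its calls: active means compounds giving half or more protection of infected cells from virus-caused growth loss, again on retest; inactive means the rest.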
Test system: CEM cells HIV-1 protection, formazan growth assay
Test: NCI AIDS Antiviral Assay
Details: for IC50: measured here: growth of uninfected CEM cells
Outline: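 Category rules: moderately active means at least 50% protection on retest, and confirmed active means 100% protection reproducibly. The underlying data came from a formazan growth assay in HIV-1-infected CEM cells.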

Compound | EC50 | IC50 | outcome
COc1c(C)c(C/C=C(\C)CCCC(C)CCCC(C)CCCC(C)C)c(OC)c2ccccc12 (stereo unspecified) | > 200 µM | > 200 µM | –
COC1CCC(OS(C)(=O)=O)CO1 (stereo unspecified) | > 200 µM | 33.9 µM | –
O=C(O)/C(=C\c1ccc(F)cc1)c1ccccc1 | > 537 µM | 309 µM | –
Cc1cccc(NC(=S)N=Nc2c(O)[nH]c3ccccc23)c1 | > 200 µM | 117 µM | –
O=c1oc2ccccc2c(O)c1C(C/C(CCN1CCCC1)=N\Nc1ccccc1)c1ccccc1 (stereo unspecified) | > 97.7 µM | 41.7 µM | –
Cc1noc(NS(=O)(=O)c2ccc(N=c3c4ccccc4n(Cc4ccccc4)c4ccccc34)cc2)c1C | – | – | inactive
Cc1c2n(c3ccccc13)CC1CON(C)C21 (stereo unspecified) | > 1100 µM | 355 µM | –
C[CH2][Sn]([CH2]C)([O]C(=O)c1cccc(OC)c1)[O][Sn]([CH2]C)([CH2]C)[O]C(=O)c1cccc(OC)c1 | > 38.9 µM | 16.6 µM | –
CC(O)C1(CNc2cc(Cl)nc(N)n2)CC(CCc2ccccc2)C1 (stereo unspecified) | > 20 µM | 7.76 µM | –
COc1c2occc2c(N=Cc2ccccn2)c2ccc(=O)oc12 | > 39.8 µM | > 39.8 µM | –
CC(=O)SC1CC(=O)OC1=O (stereo unspecified) | > 200 µM | > 200 µM | –
Cc1cccc(CC(=O)c2ccccc2)n1 | > 200 µM | 53.7 µM | –
COC(=O)c1ccc2c(c1)CC1(C2)Cc2ccccc2C1=O (stereo unspecified) | > 200 µM | 28.2 µM | –
COc1ccc(S(=O)(=O)O)cc1N=N/C(=N/Nc1cc(S(=O)(=O)O)ccc1OC)C(=O)Nc1ccccc1 | – | – | inactive
CC(=O)c1c(N=[N+]=[N-])c2cccc3c2n(c1=O)CCC3 | > 200 µM | 30.9 µM | –
O=C1NC(Cc2ccc(O)cc2)C(=O)N2CCCC12 (stereo unspecified) | > 955 µM | > 955 µM | –
CCOC(=O)CP(=S)(S)c1ccccc1 (stereo unspecified) | > 5500 µM | > 5500 µM | –
O=C1C=C(C2CCCO2)C(=O)c2c(O)ccc(O)c21 (stereo unspecified) | – | – | inactive
CCOC(=O)c1cc(-c2ccc(OC)cc2)c([N+](=O)[O-])n1C | > 200 µM | 32.4 µM | –
Cc1ccc(S(=O)(=O)OC2CSSCC2OS(=O)(=O)c2ccc(C)cc2)cc1 (stereo unspecified) | – | – | inactive
CCCOC(C)OCCC#CCC(C)OC(=O)CC(Cl)(Cl)Cl (stereo unspecified) | > 200 µM | > 200 µM | –
C[Si](C)(C)/C=C/CN1C(=O)CCC1O (stereo unspecified) | – | – | inactive
CCNC(=S)N/N=C(/c1ccc(OC)cc1)P(=O)(OCC)OCC | > 50.1 µM | > 50.1 µM | –

Compound | EC50 | IC50 | outcome
N#CC(C#N)=CN1CCCC1 | > 200 µM | > 200 µM | –
CCCCCC(=O)Nc1nc[nH]c1C(N)=O | > 200 µM | > 200 µM | –
O=P(c1ccccc1)(c1ccccc1)c1ccc2c(c1)OCCOCCOCCOCCO2 | > 200 µM | > 200 µM | –
CS(=O)(=O)OCC1CCCCCCCCCCC12SCCCS2 (stereo unspecified) | > 200 µM | > 200 µM | –
Cc1ccc(S(=O)(=O)/C(C#N)=C\N2CCNC2=S)cc1 | > 200 µM | > 200 µM | –
C=C1CCC2C(C)(CO)C(O)CCC2(C)C1C/C=C1/CCOC1=O (stereo unspecified) | – | – | inactive
COc1ccc(/C=C2\CCC(C)c3c2nc(N)c(C#N)c3-c2ccc(OC)c(OC)c2)cc1OC (stereo unspecified) | – | – | inactive
CC1=CC(S)NC(=S)N1 (stereo unspecified) | > 200 µM | > 200 µM | –
COCN1C(=O)[C@@H]2CCCN2C(=O)c2cc(OC)c(Cc3ccccc3)cc21 | > 200 µM | > 200 µM | –
O=C1Cc2c([nH]c3ccc(Cl)cc23)-c2ccccc2N1 | > 200 µM | 17.4 µM | –
OC[C@@H]1CC#C/C=C\C#CC[C@@H]1CO | – | – | inactive
Cc1cccc(N2C(=O)C(Cl)=C(Cl)C2=O)c1 | – | – | inactive
COc1ccc(C2CN(C(=O)c3ccccc3)N=C(c3ccccc3)O2)cc1 (stereo unspecified) | > 17 µM | > 17 µM | –
S=c1ncnc2cc3[nH][nH]cc3cc12 | > 67.6 µM | 49 µM | –
O=C1CS(=O)(=O)C(c2cccc(Cl)c2)N1N1C(=O)CS(=O)(=O)C1c1cccc(Cl)c1 (stereo unspecified) | > 200 µM | > 200 µM | –
CC(=O)OCC1OC(n2c(C)cc(-c3ccco3)c(C#N)c2=S)C(OC(C)=O)C(OC(C)=O)C1OC(C)=O (stereo unspecified) | 126 µM | > 200 µM | –
COC(=O)C(NC(=O)c1ccccc1)C(c1ccc(Cl)cc1)P(=O)(OC)OC (stereo unspecified) | > 309 µM | > 309 µM | –
O=C(O)c1cccc(-c2c3ccc(=O)cc-3oc3cc(O)ccc23)c1 | > 316 µM | 53.7 µM | –
O=C(NNC(=S)Nc1ccc(Br)cc1)c1cc(-c2ccccc2)nc2ccccc12 | > 200 µM | 9.77 µM | –
O=[N+]([O-])c1ccccc1SCc1ccccc1 | > 55 µM | 50.1 µM | –
O=C(OC[C@H]1OC(OC(=O)c2ccccc2)C(=O)C2(OC(=O)c3ccccc3)C3C=CC(C3)C12)c1ccccc1 (stereo partly specified) | – | – | inactive
COc1cccc(/C=N/[N-]C(N)=O)c1[O-].[Cu+2].[OH3+].c1ccc(-c2ccccn2)nc1 | – | – | inactive
CN(C)C=C1C(=O)c2ccccc2C1=O | > 35.5 µM | > 35.5 µM | –

Reference: PubChem BioAssay AID179 (DTP/NCI, 2004)
